Results published in patent US8697858B2 (priority 2009, dated 2014).
Several values for one entry are separate records, joined by “and”; a condition that tells them apart may be missing. Identical values can stand only once. Like-named read-outs stand apart in the source and are kept apart here. In the oligonucleotide strings, read from the 5' end, every base follows the letter of its sugar. An asterisk marks phosphorothioate; unmarked linkages are phosphodiester. Other units and linkages are bracketed, terminal groups are in braces. A string of capitals states the bases alone. [PMO-N] = phosphorodiamidate morpholino subunit (N: the base); [pip] = piperazino phosphorodiamidate linkage (PMOplus)

Assays:
Assay type in all cases: in vivo, ferrets
[1] = test system: oseltamivir-resistant H1N1 (SOIV) pandemic influenza virus
[2] = test system: oseltamivir-resistant H1N1 (SOIV) pandemic influenza virus; remark: listed apart in the source
[3] = test system: oseltamivir-resistant H1N1 (SOIV) pandemic influenza virus; remark: listed apart in the source
[4] = test system: oseltamivir-resistant H1N1 (SOIV) pandemic influenza virus; settings: for Viral Titer / Viral Titer AUC: n = 8
[5] = Post minus Pre, Tamiflu 5 mg/kg p.o. every 12 hours
[6] = Post, Tamiflu 5 mg/kg p.o. every 12 hours
[7] = Pre, Tamiflu 5 mg/kg p.o. every 12 hours

CCOC(=O)C1=C[C@@H](OC(CC)CC)[C@H](NC(C)=O)[C@@H](N)C1 [Tamiflu, Oseltamivir, reference compound]
Body Weight Change Difference [1, 5]: -6.1 g/day | Max Body Temperatures Difference [1, 5]: +1.3 ° F. | Body Weight Change Post [1, 6]: 8.5 ± 3.2 g/day | Max Body Temperatures Post [1, 6]: 105.7 ° F. | Body Weight Change Pre [1, 7]: 15.1 ± 0.4 g/day | Max Body Temperatures Pre [1, 7]: 104.4 ° F. | Clinical Scores ([1]; Tamiflu 5 mg/kg p.o. every 12 hours): 1.17 ± 0.25 | Macrophage Cellularity in Upper Respiratory Tract, Day 3 Peak ([2]; nasal wash, Day 3, Tamiflu 5 mg/kg p.o. every 12 hours): 7.91 ± 7.28 | Macrophage Cellularity in Upper Respiratory Tract, Average ± Std Deviation ([2]; nasal wash, Tamiflu 5 mg/kg p.o. every 12 hours): 2.98 ± 2.71 | lung congestion, alveolitis, infiltrating cells ([3]; AVI-7100 with or without oseltamivir, oseltamivir-only): significant congestion in the lung with marked alveolitis | Viral Titer ([4]; nasal wash, Day 1, Oseltamivir 5 mg/kg p.o. every 12 hours): 2.42 ± 0.58 | Viral Titer ([4]; nasal wash, Day 3, Oseltamivir 5 mg/kg p.o. every 12 hours): 0.77 ± 0.73 | Viral Titer ([4]; nasal wash, Day 5, Oseltamivir 5 mg/kg p.o. every 12 hours): 0.67 ± 0.67 | Viral Titer ([4]; nasal wash, Day 8, Oseltamivir 5 mg/kg p.o. every 12 hours): 0.92 ± 0.37 | Viral Titer AUC ([4]; nasal wash, Oseltamivir 5 mg/kg p.o. every 12 hours): 7.015

AVI-7100: PMOplus CGGT+TAGAAGAC+TCATC+TTT, three (piperazino) phosphorodiamidate linkages ([PMO-C][PMO-G][PMO-G][PMO-T][pip][PMO-T][PMO-A][PMO-G][PMO-A][PMO-A][PMO-G][PMO-A][PMO-C][pip][PMO-T][PMO-C][PMO-A][PMO-T][PMO-C][pip][PMO-T][PMO-T][PMO-T])
Clinical Scores ([1]; in vivo): 1.00 ± 0.00 and 1.11 ± 0.21 | symptoms of influenza virus infection ([1]; in vivo): significantly reduces symptoms of influenza virus infection | Body Weight Change Difference ([1]; in vivo, ip, 10 mg/kg): -5.7 g/day | Body Weight Change Post ([1]; in vivo, ip, 10 mg/kg): 10.9 ± 1.5 g/day | Body Weight Change Pre ([1]; in vivo, ip, 10 mg/kg): 16.6 ± 0.8 g/day | Max Body Temperatures Difference ([1]; in vivo, ip, 10 mg/kg): +0.7 ° F. | Max Body Temperatures Post ([1]; in vivo, ip, 10 mg/kg): 106.1 ° F. | Max Body Temperatures Pre ([1]; in vivo, ip, 10 mg/kg): 105.4 ° F. | Body Weight Change Difference ([1]; in vivo, ip, 30 mg/kg): +0.8 g/day | Body Weight Change Post ([1]; in vivo, ip, 30 mg/kg): 12.6 ± 2.0 g/day | Body Weight Change Pre ([1]; in vivo, ip, 30 mg/kg): 11.8 ± 0.8 g/day | Max Body Temperatures Difference ([1]; in vivo, ip, 30 mg/kg): −0.5 ° F. | Max Body Temperatures Post ([1]; in vivo, ip, 30 mg/kg): 104.2 ° F. | Max Body Temperatures Pre ([1]; in vivo, ip, 30 mg/kg): 104.7 ° F. | Macrophage Cellularity in Upper Respiratory Tract, Average ± Std Deviation ([2]; in vivo, ip, 10 mg/kg): 4.34 ± 3.82 | Macrophage Cellularity in Upper Respiratory Tract, Day 3 Peak ([2]; in vivo, ip, 10 mg/kg): 3.88 ± 4.73 | Macrophage Cellularity in Upper Respiratory Tract, Average ± Std Deviation ([2]; in vivo, ip, 30 mg/kg): 2.78 ± 2.97 | Macrophage Cellularity in Upper Respiratory Tract, Day 3 Peak ([2]; in vivo, ip, 30 mg/kg): 1.59 ± 1.28 | lung congestion, alveolitis, infiltrating cells ([3]; in vivo): no congestion in the lung, only mild alveolitis, and few infiltrating cells | viral titer in nasal wash, benefit in words ([4]; in vivo): Significant benefit | Viral Titer AUC ([4]; 10 mg/kg): 5.515 | Viral Titer AUC ([4]; 30 mg/kg): 5.675
